Results taken from patent publication US11610666B2, “Systems and methods of managing treatment of a chronic condition by symptom tracking” (CORCEPT THERAPEUTICS, INC., priority 2014, dated 2023).

Settings: human, in vivo
From the text: Treatment of endocrine disorders, such as Cushing's Syndrome, can be particularly difficult to manage due to less predictable patient response to administration of a synthetic steroid, such as mifepristone. Mifepristone is a synthetic steroid that binds progesterone and glucocorticoid receptors and has been employed to treat a number of conditions including meningioma, uterine fibroids, hyperadrenocorticism, metabolic, oncologic, opthamalogic, central nervous system disorders and certain psychiatric illnesses. Examples of such metabolic disorders include diabetes, obesity, antipsychotic induced weight gain, hypertension, and osteoporosis; examples of oncologic illness include various types of cancers, including ovarian cancer and prostate cancer; examples of central nervous system disorders include Alzheimer's Disease, neurodegenerative diseases, post traumatic stress disorder, and alcohol dependence; and examples of opthamalogical conditions include glaucoma and central serous retinopathy. […] For a particular dose of mifepristone, the plasma drug concentration can differ by as much as 800% from one patient to the next. The varied plasma drug concentration can result in some patients not receiving an efficacious dose of mifepristone. For these patients in particular, it is necessary to improve the pharmacokinetics of mifepristone upon administration. […]

## CC#C[C@]1(O)CC[C@H]2[C@@H]3CCC4=CC(=O)CCC4=C3[C@@H](c3ccc(N(C)C)cc3)C[C@@]21C [mifepristone]
  difference in plasma drug concentration from one patient to the next: ≤ 800%
